Measured values as given in patent US20030059774A1, “Detection of CYP2C19 polymorphisms” (priority 2000, published 2003).

Tested on: CYP2C19
Experiment: Omeprazole metabolic ratio (MR) phenotyping of study subjects, correlated with CYP2C19 5' flanking region haplotypes
Format: in vivo, human
Details: for MR (Ome), predicted metabolic ratio: based on 144 samples; for MR-range (min-max): omeprazole 20 mg oral, 3 hours; for mr50 (metabolic ratio of the 50th percentile), mr(omeprazole): single oral dose 20 mg omeprazole, blood sample 3 hours after intake
Procedure: The study was performed in accordance with the principles stated in the Declaration of Helsinki as reviewed in Tokyo 1975 and Venice 1983, Hong Kong 1989 and Somerset West 1996. Subjects were preferably not related to each other. Based on questioning, individuals having one of the following were excluded: a medical condition judged to influence liver function or requiring pharmacological treatment; any on-going disease; intake of any drug, except oral contraceptives, during one week prior to the study; breast-feeding or pregnancy. No physical examination was performed. For these experiments, a single oral dose of 20 mg omeprazole (Losec, AstraZeneca) was given in the morning after an overnight fast. The bladder was emptied before drug intake. A single blood sample was collected 3 hours after drug intake.
In the first part of the study, approximately 90 samples (Swedish Caucasians) were selected as set forth in Table 1, on the basis of the following assumptions: if the distribution of an unknown polymorphism will be 25% for a homozygote, a sample size of approximately 40 “UEM” will be able to detect an increase in this specific genotype (homozygote) by 28% (α=5% (two-tailed), power=80%). If it is assumed that the distribution of an unknown polymorphism will be 10% for a homozygote, a sample size of approximately 40 “UEM” will be able to detect an increase in this specific genotype (homozygote) by 21% (α-5% (two-tailed), power=80%). The samples were selected with regard to their phenotyped metabolic ratios (MR) of omeprazole. Available genotype information for all samples was provided.
In the second part of the study, 71 samples with a more normal phenotypic distribution were used. Also, no exclusion of individuals with known defective alleles or duplications was done.
This analysis was performed using software based on maximum likelihood methodology and using the EM algorithm of Excoffier et al. (1995), Mol Biol Evol. 12:921-927. […] From the haplotype information two different kinds of variables were created: one variable was formed as a haplotype combination variable (HTYPE). This variable has the value H1/H2 when the subject has haplotypes 1 and 2, etc. Variables H1, H2, H3 and H4 are haplotype annotations that denote the number of copies of that particular haplotype for the subject, e.g., for a subject with haplotype H1/H2 the variables H1, H2, H3 and H4 will be 1, 1, 0 and 0, respectively. Each of these variables can thus take on the values 0, 1 or 2. Only the four most frequent haplotypes were considered when those variables were formed.

- MR (Ome), predicted metabolic ratio (HTYPE H1/H1 (352 C, 1060 T), marker for EM): 0.2-0.8
- MR-range (min-max) (HTYPE H1/H1, 63 subjects): 0.17-2.90
- MR (Ome), predicted metabolic ratio (HTYPE H1/H2 (352 C/T, 1060 T), marker for UEM & EM): <0.8
- MR-range (min-max) (HTYPE H1/H2, 31 subjects): 0.12-2.62
- MR (Ome), predicted metabolic ratio (HTYPE H1/H3 (352 C, 1060 C/T), marker for EM &IM): 0.4-7.0
- MR-range (min-max) (HTYPE H1/H3, 27 subjects): 0.03-11.87
- MR (Ome), predicted metabolic ratio (HTYPE H2/H2 (352 T, 1060 T), marker for UEM/EM): <0.4
- MR-range (min-max) (HTYPE H2/H2, 4 subjects): 0.15-0.33
- MR (Ome), predicted metabolic ratio (HTYPE H2/H3 (352 C/T, 1060 C/T), marker for EM & (IM)): 0.4-2.0
- MR-range (min-max) (HTYPE H2/H3, 12 subjects): 0.36-1.75
- MR (Ome), predicted metabolic ratio (HTYPE H3/H3 (352 C, 1060 C), marker for PM): >7.0
- MR-range (min-max) (HTYPE H3/H3, 7 subjects): 1.28-23.75
- mr50 (metabolic ratio of the 50th percentile), mr(omeprazole) (haplotype H1/H1, n = 60): mr50 = 0.485
- mr50 (metabolic ratio of the 50th percentile), mr(omeprazole) (haplotype H1/—, n = 63): mr50 = 0.63
- mr50 (metabolic ratio of the 50th percentile), mr(omeprazole) (haplotype H2/H2, n = 4): mr50 = 0.25
- mr50 (metabolic ratio of the 50th percentile), mr(omeprazole) (haplotype H2/—, n = 44): mr50 = 0.485
- mr50 (metabolic ratio of the 50th percentile), mr(omeprazole) (haplotype H3/H3, n = 7): mr50 = 16.86
- mr50 (metabolic ratio of the 50th percentile), mr(omeprazole) (haplotype H3/—, n = 39): mr50 = 0.88
- mr50 (metabolic ratio of the 50th percentile), mr(omeprazole) (haplotype H4/H4, n = 2): mr50 = 1.5
- mr50 (metabolic ratio of the 50th percentile), mr(omeprazole) (haplotype H4/—, n = 14): mr50 = 0.755
- mr50 (metabolic ratio of the 50th percentile), mr(omeprazole) (haplotype —/— (no copy of H1), n = 30): mr50 = 0.97
- mr50 (metabolic ratio of the 50th percentile), mr(omeprazole) (haplotype —/— (no copy of H2), n = 105): mr50 = 0.64
- mr50 (metabolic ratio of the 50th percentile), mr(omeprazole) (haplotype —/— (no copy of H3), n = 107): mr50 = 0.47
- mr50 (metabolic ratio of the 50th percentile), mr(omeprazole) (haplotype —/— (no copy of H4), n = 137): mr50 = 0.56
SMILES: COc1ccc2[nH]c([S+]([O-])Cc3ncc(C)c(OC)c3C)nc2c1 (stereo not drawn) [omeprazole]
